Data from article PMC4607267 (Molecular and biochemical parasitology, 2015).

Target: T1, SmGAR (Schistosoma mansoni, UniProt A0A3Q0KNW8)
T1 sequence (A0A3Q0KNW8 5-938): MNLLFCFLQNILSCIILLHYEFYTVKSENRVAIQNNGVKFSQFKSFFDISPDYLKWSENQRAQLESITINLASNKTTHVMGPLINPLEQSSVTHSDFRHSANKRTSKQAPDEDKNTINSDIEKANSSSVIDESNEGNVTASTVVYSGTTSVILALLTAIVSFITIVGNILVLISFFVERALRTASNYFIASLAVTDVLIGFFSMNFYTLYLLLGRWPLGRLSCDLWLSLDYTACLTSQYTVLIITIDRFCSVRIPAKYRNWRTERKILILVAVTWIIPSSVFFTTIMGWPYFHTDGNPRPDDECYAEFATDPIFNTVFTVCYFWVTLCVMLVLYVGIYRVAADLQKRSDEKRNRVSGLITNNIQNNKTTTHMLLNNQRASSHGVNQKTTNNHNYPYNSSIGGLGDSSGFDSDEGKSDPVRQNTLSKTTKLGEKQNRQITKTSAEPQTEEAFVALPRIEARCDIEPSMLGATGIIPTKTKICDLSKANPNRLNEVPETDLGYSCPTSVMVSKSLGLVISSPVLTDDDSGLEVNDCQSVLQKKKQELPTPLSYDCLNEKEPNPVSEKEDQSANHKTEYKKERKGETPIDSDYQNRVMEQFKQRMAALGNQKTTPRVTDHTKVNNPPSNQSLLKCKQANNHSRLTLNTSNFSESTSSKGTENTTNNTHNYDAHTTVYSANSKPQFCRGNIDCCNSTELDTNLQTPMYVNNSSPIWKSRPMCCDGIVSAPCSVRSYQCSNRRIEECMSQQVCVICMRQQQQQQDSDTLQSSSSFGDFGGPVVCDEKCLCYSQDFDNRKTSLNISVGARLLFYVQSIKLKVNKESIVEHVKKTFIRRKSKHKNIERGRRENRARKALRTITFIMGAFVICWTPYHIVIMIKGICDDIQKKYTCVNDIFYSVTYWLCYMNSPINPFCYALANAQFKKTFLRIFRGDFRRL
Experiment: yeast HIS3 reporter growth assay, Alamar Blue
Assay type: cell-based
Settings: read-out: % inhibition at 1 mM

CN1CCN(CC(=O)N2c3ccccc3C(=O)Nc3cccnc32)CC1 [pirenzepine]
inhibition at 1000 µM: < 50%
